PubChem BioAssay AID2060601 (Molecular Pharmacology Branch, DTP, NCI, 2025)

Test system: 874868-142-R-J2-PDC complex spheroids, growth % test/control
Experiment: Anticancer human tumor 874868-142-R-J2-PDC patient-derived head and neck squamous carcinoma cell line growth inhibition [CLK]
Details: for IC50: curve of first compound; for viability, T/C: stronger effect = lower value
Outline: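 Patient-derived tumor cells grown as complex spheroids with HUVEC endothelial cells and mesenchymal stem cells, treated with drug combinations. Concentrations descend in half-log steps from near clinical Cmax, or from 10 microM if Cmax unknown.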

[1] = second compound 0.0316 µM, first compound 0.0316 µM
[2] = second compound 0.0316 µM, first compound 0.1 µM
[3] = second compound 0.0316 µM, first compound 0.316 µM
[4] = second compound 0.0316 µM, first compound 1 µM
[5] = second compound 0.0316 µM, first compound 3.16 µM
[6] = second compound 0.0316 µM, first compound 10 µM
[7] = second compound 0.1 µM, first compound 0.0316 µM
[8] = second compound 0.1 µM, first compound 0.1 µM
[9] = second compound 0.1 µM, first compound 0.316 µM
[10] = second compound 0.1 µM, first compound 1 µM
[11] = second compound 0.1 µM, first compound 3.16 µM
[12] = second compound 0.1 µM, first compound 10 µM
[13] = second compound 0.316 µM, first compound 0.0316 µM
[14] = second compound 0.316 µM, first compound 0.1 µM
[15] = second compound 0.316 µM, first compound 0.316 µM
[16] = second compound 0.316 µM, first compound 1 µM
[17] = second compound 0.316 µM, first compound 3.16 µM
[18] = second compound 0.316 µM, first compound 10 µM
[19] = second compound 1 µM, first compound 0.0316 µM
[20] = second compound 1 µM, first compound 0.1 µM
[21] = second compound 1 µM, first compound 0.316 µM
[22] = second compound 1 µM, first compound 1 µM
[23] = second compound 1 µM, first compound 3.16 µM
[24] = second compound 1 µM, first compound 10 µM
[25] = second compound 3.16 µM, first compound 0.0316 µM
[26] = second compound 3.16 µM, first compound 0.1 µM
[27] = second compound 3.16 µM, first compound 0.316 µM
[28] = second compound 3.16 µM, first compound 1 µM
[29] = second compound 3.16 µM, first compound 3.16 µM
[30] = second compound 3.16 µM, first compound 10 µM
[31] = second compound 10 µM, first compound 0.0316 µM
[32] = second compound 10 µM, first compound 0.1 µM
[33] = second compound 10 µM, first compound 0.316 µM
[34] = second compound 10 µM, first compound 1 µM
[35] = second compound 10 µM, first compound 3.16 µM
[36] = second compound 10 µM, first compound 10 µM
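Also: spheroids exposed to the compounds for 7 days.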
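For viability, T/C in this document: 100% = DMSO vehicle control viability.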

## CC(C)CC(NC(=O)C(Cc1ccccc1)NC(=O)c1cnccn1)B(O)O (stereo not drawn) + CNC(=O)c1ccc(Nc2nc(OC3CCCC3)c3c(-c4ccc5nc(C)oc5c4)c[nH]c3n2)c(OC)c1
Second compound 0.0316 µM
  IC50: 4.48 nM
Second compound 0.1 µM
  IC50: 4.69 nM
Second compound 0.316 µM
  IC50: 4.24 nM
Second compound 1 µM
  IC50: < 0.949 nM
Second compound 3.16 µM
  IC50: < 0.949 nM
Second compound 10 µM
  IC50: < 0.949 nM
Second compound 0.0316 µM, first compound 0.000949 µM
  viability, T/C: 96.8%
Second compound 0.0316 µM, first compound 0.003 µM
  viability, T/C: 76.4%
Second compound 0.0316 µM, first compound 0.00949 µM
  viability, T/C: 0.57%
Second compound 0.0316 µM, first compound 0.03 µM
  viability, T/C: 0.3%
Second compound 0.0316 µM, first compound 0.0949 µM
  viability, T/C: 0.21%
Second compound 0.0316 µM, first compound 0.3 µM
  viability, T/C: 0.23%
Second compound 0.1 µM, first compound 0.000949 µM
  viability, T/C: 89.5%
Second compound 0.1 µM, first compound 0.003 µM
  viability, T/C: 80.7%
Second compound 0.1 µM, first compound 0.00949 µM
  viability, T/C: 1.32%
Second compound 0.1 µM, first compound 0.03 µM
  viability, T/C: 0.44%
Second compound 0.1 µM, first compound 0.0949 µM
  viability, T/C: 0.2%
Second compound 0.1 µM, first compound 0.3 µM
  viability, T/C: 4.13%
Second compound 0.316 µM, first compound 0.000949 µM
  viability, T/C: 66.8%
Second compound 0.316 µM, first compound 0.003 µM
  viability, T/C: 70.8%
Second compound 0.316 µM, first compound 0.00949 µM
  viability, T/C: 6.3%
Second compound 0.316 µM, first compound 0.03 µM
  viability, T/C: 0.22%
Second compound 0.316 µM, first compound 0.0949 µM
  viability, T/C: 0.26%
Second compound 0.316 µM, first compound 0.3 µM
  viability, T/C: 5.41%
Second compound 1 µM, first compound 0.000949 µM
  viability, T/C: 47.7%
Second compound 1 µM, first compound 0.003 µM
  viability, T/C: 31.9%
Second compound 1 µM, first compound 0.00949 µM
  viability, T/C: 0.47%
Second compound 1 µM, first compound 0.03 µM
  viability, T/C: 0.24%
Second compound 1 µM, first compound 0.0949 µM
  viability, T/C: 5.77%
Second compound 1 µM, first compound 0.3 µM
  viability, T/C: 17.3%
Second compound 3.16 µM, first compound 0.000949 µM
  viability, T/C: 45.3%
Second compound 3.16 µM, first compound 0.003 µM
  viability, T/C: 21.6%
Second compound 3.16 µM, first compound 0.00949 µM
  viability, T/C: 0.47%
Second compound 3.16 µM, first compound 0.03 µM
  viability, T/C: 0.19%
Second compound 3.16 µM, first compound 0.0949 µM
  viability, T/C: 7.41%
Second compound 3.16 µM, first compound 0.3 µM
  viability, T/C: 10.4%
Second compound 10 µM, first compound 0.000949 µM
  viability, T/C: 38.6%
Second compound 10 µM, first compound 0.003 µM
  viability, T/C: 20%
Second compound 10 µM, first compound 0.00949 µM
  viability, T/C: 3.06%
Second compound 10 µM, first compound 0.03 µM
  viability, T/C: 0.36%
Second compound 10 µM, first compound 0.0949 µM
  viability, T/C: 3.69%
Second compound 10 µM, first compound 0.3 µM
  viability, T/C: 6.49%

## CC1(C)CCC(CN2CCN(c3ccc(C(=O)NS(=O)(=O)c4ccc(NCC5CCOCC5)c([N+](=O)[O-])c4)c(Oc4cnc5[nH]ccc5c4)c3)CC2)=C(c2ccc(Cl)cc2)C1 + CNC(=O)c1ccc(Nc2nc(OC3CCCC3)c3c(-c4ccc5nc(C)oc5c4)c[nH]c3n2)c(OC)c1
Second compound 0.0316 µM
  IC50: 7610 nM
Second compound 0.1 µM
  IC50: 8100 nM
Second compound 0.316 µM
  IC50: 5320 nM
Second compound 1 µM
  IC50: 3200 nM
Second compound 3.16 µM
  IC50: < 31.6 nM
Second compound 10 µM
  IC50: < 31.6 nM
[1]
  viability, T/C: 104%
[2]
  viability, T/C: 103%
[3]
  viability, T/C: 105%
[4]
  viability, T/C: 92.7%
[5]
  viability, T/C: 117%
[6]
  viability, T/C: 33%
[7]
  viability, T/C: 95.8%
[8]
  viability, T/C: 89.4%
[9]
  viability, T/C: 86.7%
[10]
  viability, T/C: 84.2%
[11]
  viability, T/C: 94.6%
[12]
  viability, T/C: 41.1%
[13]
  viability, T/C: 56.3%
[14]
  viability, T/C: 67.9%
[15]
  viability, T/C: 72.4%
[16]
  viability, T/C: 62.5%
[17]
  viability, T/C: 51%
[18]
  viability, T/C: 44.2%
[19]
  viability, T/C: 51.8%
[20]
  viability, T/C: 51.5%
[21]
  viability, T/C: 50.6%
[22]
  viability, T/C: 46.1%
[23]
  viability, T/C: 51.1%
[24]
  viability, T/C: 34.1%
[25]
  viability, T/C: 46.2%
[26]
  viability, T/C: 48.4%
[27]
  viability, T/C: 39.1%
[28]
  viability, T/C: 41.6%
[29]
  viability, T/C: 43.8%
[30]
  viability, T/C: 39.8%
[31]
  viability, T/C: 40.5%
[32]
  viability, T/C: 51%
[33]
  viability, T/C: 45.6%
[34]
  viability, T/C: 47.7%
[35]
  viability, T/C: 57.2%
[36]
  viability, T/C: 31.8%

## CC1COCCN1c1cc(C2(S(C)(=N)=O)CC2)nc(-c2ccnc3[nH]ccc23)n1 (stereo not drawn) + CNC(=O)c1ccc(Nc2nc(OC3CCCC3)c3c(-c4ccc5nc(C)oc5c4)c[nH]c3n2)c(OC)c1
Second compound 0.0316 µM
  IC50: 5960 nM
Second compound 0.1 µM
  IC50: 2860 nM
Second compound 0.316 µM
  IC50: 404 nM
Second compound 1 µM
  IC50: < 31.6 nM
Second compound 3.16 µM
  IC50: < 31.6 nM
Second compound 10 µM
  IC50: < 31.6 nM
[1]
  viability, T/C: 125%
[2]
  viability, T/C: 96.2%
[3]
  viability, T/C: 91.9%
[4]
  viability, T/C: 69.8%
[5]
  viability, T/C: 53.9%
[6]
  viability, T/C: 45.9%
[7]
  viability, T/C: 101%
[8]
  viability, T/C: 79.1%
[9]
  viability, T/C: 73.1%
[10]
  viability, T/C: 55%
[11]
  viability, T/C: 54.8%
[12]
  viability, T/C: 39%
[13]
  viability, T/C: 51.2%
[14]
  viability, T/C: 53.8%
[15]
  viability, T/C: 53%
[16]
  viability, T/C: 40.2%
[17]
  viability, T/C: 37.7%
[18]
  viability, T/C: 35.6%
[19]
  viability, T/C: 44.7%
[20]
  viability, T/C: 47.6%
[21]
  viability, T/C: 50.8%
[22]
  viability, T/C: 35%
[23]
  viability, T/C: 21.8%
[24]
  viability, T/C: 23.1%
[25]
  viability, T/C: 42.5%
[26]
  viability, T/C: 46.5%
[27]
  viability, T/C: 44.4%
[28]
  viability, T/C: 34.9%
[29]
  viability, T/C: 34.6%
[30]
  viability, T/C: 27.8%
[31]
  viability, T/C: 44.1%
[32]
  viability, T/C: 37.9%
[33]
  viability, T/C: 41.7%
[34]
  viability, T/C: 29.6%
[35]
  viability, T/C: 26.6%
[36]
  viability, T/C: 17.2%

## O=C(c1cc(Cc2n[nH]c(=O)c3ccccc23)ccc1F)N1CCN(C(=O)C2CC2)CC1 + CNC(=O)c1ccc(Nc2nc(OC3CCCC3)c3c(-c4ccc5nc(C)oc5c4)c[nH]c3n2)c(OC)c1
Second compound 0.0316 µM
  IC50: > 10000 nM
Second compound 0.1 µM
  IC50: > 10000 nM
Second compound 0.316 µM
  IC50: > 10000 nM
Second compound 1 µM
  IC50: < 31.6 nM
Second compound 3.16 µM
  IC50: < 31.6 nM
Second compound 10 µM
  IC50: < 31.6 nM
[1]
  viability, T/C: 86.5%
[2]
  viability, T/C: 90.7%
[3]
  viability, T/C: 115%
[4]
  viability, T/C: 81.4%
[5]
  viability, T/C: 91.8%
[6]
  viability, T/C: 75.6%
[7]
  viability, T/C: 98.9%
[8]
  viability, T/C: 76.5%
[9]
  viability, T/C: 93.7%
[10]
  viability, T/C: 87%
[11]
  viability, T/C: 70.7%
[12]
  viability, T/C: 73.4%
[13]
  viability, T/C: 54%
[14]
  viability, T/C: 54.5%
[15]
  viability, T/C: 60.8%
[16]
  viability, T/C: 45.9%
[17]
  viability, T/C: 61%
[18]
  viability, T/C: 55.6%
[19]
  viability, T/C: 42.2%
[20]
  viability, T/C: 40.9%
[21]
  viability, T/C: 42.3%
[22]
  viability, T/C: 41.1%
[23]
  viability, T/C: 39.7%
[24]
  viability, T/C: 41.4%
[25]
  viability, T/C: 41.4%
[26]
  viability, T/C: 48.8%
[27]
  viability, T/C: 48.8%
[28]
  viability, T/C: 41%
[29]
  viability, T/C: 50.3%
[30]
  viability, T/C: 46.2%
[31]
  viability, T/C: 38.3%
[32]
  viability, T/C: 48.4%
[33]
  viability, T/C: 42.7%
[34]
  viability, T/C: 41.8%
[35]
  viability, T/C: 43.3%
[36]
  viability, T/C: 42.2%
